Test results published in patent US8835644B2, “Broad spectrum benzothiophene-nitrothiazolide and other antimicrobials” (University of Virginia Patent Foundation, priority 2009, dated 2014).
Converted amounts (≈) assume the structure as drawn.

Key:
[1] = tested on: S. aureus and S. epidermidis strains; assay: MIC by microdilution in TSB, staphylococcal strains; assay type: cell-based, Staphylococcus epidermidis; details: Staphylococcus aureus; staphylococcal strains incl. MRSA S. aureus, microdilution in TSB; read-out: MIC
Method: Minimal inhibitory concentration testing of NTZ was done in sterile round bottom 96 well microtiter polystyrene plates (Corning Inc., Corning, N.Y.) by microdilution. Tizoxanide TIZ (deacetylated form of NTZ), denitro-NTZ (TIZ without 5-nitro group) and amoxanide AMIX (TIZ-ethylamine) were also tested. Bacteria were grown overnight and suspended in fresh TSB to an OD600 of 0.01 and 100 μl were dispensed into wells with the first well containing 200 μA NTZ and other antibiotics (DMSO control) were added to well one and serially diluted from 32 μg/ml. All compounds were tested in triplicate and plates were read visually or with a plate reader (Molecular Devices) at 8, 12 and at 24 h. MIC was determined as the first well in which no visible bacterial growth was noted relative to controls. Drug effects on aerobic growth were determined in 125 ml flasks containing 25 ml of TSB medium and following inoculation (detailed above), flasks were on a gyrorotary shaker (200 rpm) at 37° C. Final concentrations of NTZ were 0, 10 and 25 μg/ml and samples were removed at hourly intervals and absorbance determined at 600 nm.

[2] = tested on: S. epidermidis strain 9142; assay: Biofilm determination, crystal violet, S. epidermidis; assay type: cell-based, Staphylococcus epidermidis; details: compared with NTZ
Method: Staphylococcal strains were cultured overnight in TSB at 37° C. with shaking, diluted in fresh medium to an OD600 of 0.01 and 200 W was dispensed into sterile flat bottom polystyrene 96 well microtiter plates (Costar 3596, Corning Inc.). […] Each compound and dilution was tested in triplicate. The plates were incubated overnight at 37° C. in a humidified incubator, without shaking and both growth and biofilm accumulation were determined at 16 h.
Following recording of turbidities, the culture medium was aspirated and the wells were washed three times with distilled water, blotted on paper towels, and fixed with 75% ethanol for 10 minutes.
To visualize biofilm material, 0.5% crystal violet was added to each well and after 5 minutes was removed and the wells washed three times with distilled water. Plates were read using a microplate reader at a wavelength of 570 nm. The dye was then extracted by adding 200 W of 95% ethanol, and the absorbance was read again at 570 nm. All assays were performed in triplicate and the mean and standard deviation determined. Generally, the ethanol-solubilized crystal violet was more reliable and these determinations are reported throughout.

[3] = Zn2+ chelation, spectrophotometric and 1H NMR; assay type: physicochemical; details: 1H NMR in DMSO-d6, ratios 1:1, 1:2, 2:1, up to 72 h
Method: To test direct binding of Zn^2+ by NTZ in solution, we tested a range of concentrations of both NTZ and TIZ and scanned the solutions spectrophotometrically using an OLIS Cary-14 (OLIS Instruments Co., Bogart Ga.). Absolute spectra were recorded over a UV/Vis range from 220 nm to 700 nm. Spectral shifts in the 418 nm range would be attributable to changes in resonance within the thiazole ring that would result if Zn^2+ were coordinated by NTZ (9).
Chelation experiments were also performed utilizing NTZ and TIZ in DMSO-d6 (0.5 mL) with ZnCl2 using a 300 MHz Varian MercuryPlus spectrometer. Specifically, three ratios of NTZ to Zn^2+ were investigated (1:1, 1:2, 2:1) where NTZ was held constant (4 mg, 13 μmoles) while varying ZnCl2 (1.8 mg, 13 μmoles or 3.5 mg, 26 μmoles) or NTZ (8 mg, 26 μmoles) with ZnCl2 (1.8 mg, 13 μmoles). Three ratios of TIZ to Zn^2+ were also investigated (1:1, 1:2, 2:1) where TIZ was held constant (4 mg, 15 μmoles) while varying ZnCl2 (2.1 mg, 15 μmoles or 4.1 mg, 30 μmoles) or TIZ (8 mg, 30 μmoles) with ZnCl2 (2.1 mg, 15 μmoles). ^1H NMR spectra were then obtained after mixing for 5 min, 24 h, 48 h, and 72 h at room temperature. Any chelation event would be evidenced by shifting or broadening of the thiazole and benzene protons as well as loss of the amide proton.

[4] = reference (33); cited from earlier work

SMILES: O=C(Nc1ncc([N+](=O)[O-])s1)c1ccccc1O [TIZ]
- MIC [1]: 8 to 16 µg/mL (≈ 30.2 to 60.3 µM)
- Inhibition of biofilm production [2]: equivalent results
- Chelation with ZnCl2 [3]: no chelation
- Bound to plasma proteins [4]: 97.5%
